Laboratory results as given in patent US20200055044A1, “METHODS AND SYSTEMS FOR MICRO PLATELET FUNCTION TESTING USING AN INTEGRATED MINIATURIZED PLATELET FUNCTION ANALYZER” (Atantares Corp., priority 2016, published 2020).

Tested on: platelets in fresh anticoagulated human blood
Test: impedance-based micro platelet function test with microfabricated 3D electrodes in a microfluidic channel
Format: cell-based
Conditions: 100 μM ADP; human blood with Calcium Chloride and 10 μM PPACK; flow rate 25 μL/min; six frequencies 20 Hz to 2 MHz; logged for 2000 s; FIG. 16
Text: Although not shown explicitly, electrodes of different heights (125 μm, 250 μm), diameters (100 μm, 250 μm, 500 μm), and gaps in-between electrodes (500 μm, 1000 μm) were fabricated using the same process. Pairs of 3D electrodes where each electrode comprises a number of electrically connected metal-coated cylindrical cores arranged in a grid were also fabricated. […] Wires soldered to the patterned metal pads on the substrates were used to connect the 3D electrodes to an Agilent E4980A LCR meter. FIG. 16 show a set 1600 of experimental data using electrodes fabricated according to the process discussed above. 1 mL of fresh anticoagulated human blood, obtained within 4 hrs of use, was mixed with 65 μL of 100 mg/mL Calcium Chloride and 10 μM of D-Phenylalanyl-prolyl-arginyl chloromethyl ketone (PPACK). […] The impedance of the electrodes was continuously monitored and logged at six different frequencies (20 Hz, 200 Hz, 1 kHz, 15 kHz, 200 kHz, 2 MHz) using a custom MATLAB program running on a computer interfaced to the LCR meter. […] The peak impedance values reached or the areas under the impedance-time curves or other measures from these curves may be analyzed and interpreted as indications of platelet activity in response to the modifying reagent added (e.g. ADP). […]

`Nc1ncnc2c1ncn2[C@@H]1O[C@H](COP(=O)(O)OP(=O)(O)O)[C@@H](O)[C@H]1O` [ADP, adenosine diphosphate] was tested, and the “change in electrode impedance after addition of platelet activation reagent” value was “increase in electrode impedances at all frequencies”.
